Like-named read-outs stand apart in the source and are kept apart here.
Columns and labels:
[1] = system: tracheal smooth muscle from guinea pigs (contraction induced by 3 × 10^−6 mol/L of CCh); assay: Antagonism in vitro of contraction of isolated tracheal smooth muscle from guinea pigs induced by carbachol (CCh); type: cell-based, guinea pig; settings: cumulative dosing
Excerpt: Preparation of the Isolated Tracheal Smooth Muscle Specimen from a Guinea Pig:
After a guinea pig was narcotized with urethane, the trachea between the throat and carina of the guinea pig was taken out rapidly, and placed in the Krebs-Henseleit (K-H) solution (composition (g/L): NaCl 6.92, KCl 0.35, CaCl2 0.28, KH2PO4 0.16, MgSO4.7H2O 0.4568, NaHCO3 2.1, Glucose 2.0) with a mixture gas of 5% CO2 and 95% O2 purged. After loose connective tissues and fats around the trachea were separated, the trachea was cut into trachea pieces having a width of about 3 mm and a length of 20 mm by a surgical scissor, with both ends of the trachea piece ligated with 4˜0 silk suture, and then placed into a thermostatic bath containing 5 ml of K—H solution (pH 7.4) at 37° C., with the mixture gas of 5% CO2 and 95% O2 continuously purged. A muscle tension transducer was connected to the upper end so as to apply 1.0 g of resting tension to the specimen, the change of the tension was recorded, the culture solution was replaced every 20 min, and the test was started after being balanced for 60 min.
Administration method: After the trachea piece was stabilized, 3×10^−6 mol/L of CCh was added into a bath, and after the contractile tension of the trachea piece reached a peak level, the example compounds, ipratropium bromide and tiotropium bromide were added into a Magnus bath by a cumulative dosing regimen with a dosage of 10^−9˜10^−5 mol, respectively, and the diastolic condition of the trachea piece was observed: if no response occurred (below the threshold concentration), a next dosage was continued to be added in sequence; if response occurred, after it reached a diastolic plateau, a next dosage was further added. The above operation was repeated until the contractile curve reached the minimum value. Finally, 10^−6 mol/L of isoprenaline was added so that the maximum relaxation would be reached and the curve was recorded.
Statistical approach: The result was expressed as mean ±standard deviation, and counted by Sigma Stat statistical package. The data was analyzed by using variance analysis, the comparison among means of a plurality of specimen was performed by using Student-Newman-Keuls(SNK) test; statistical significant level α=0.05 (bilateral).
Compounds shown in Table 5 were further prepared according to the present invention, and their IC50 […] of resistance to the contraction of tracheal smooth muscle from guinea pigs induced by a concentration of 3×10^−6 mol/L of CCh was determined.

[2] = system: tracheal smooth muscle from guinea pigs (contraction induced by 3 × 10^−6 mol/L of CCh); assay: as above; type: cell-based, guinea pig
[3] = system: m1, m2 and m3 subtypes of M receptor; assay: Competitive [3H]-QNB binding on membranes of CHO cells transfected with m1, m2, m3; selectivity on subtypes of M receptor; settings: ratio of Ki, n = 6
[4] = system: bronchus in guinea pigs (contractile response induced by Mch); assay: Antagonism of contractile response of bronchus in guinea pigs induced by methacholine (Mch); airway resistance and pulmonary dynamic compliance; type: in vivo, guinea pig; settings: Mch 10 μg/kg iv after 30 min; for Cdyn(ml/cm H2O) / Raw (cm H2O/ml/s): Mean ± S.E.M
Excerpt: Determination of tidal volume, airway flow rate, and transpulmonary pressure: 1.5 g/kg of urethane was intraperitoneally injected to narcotize the guinea pig. The guinea pig was fixed supinely and treated with tracheal intubation, and the external jugular vein was separated and an indwelling needle was inserted; the guinea pig was enclosed into a body plethysmograph, a blunt needle for intubation into thoracic cavity was inserted between ribs 4˜5 of the prothorax of the guinea pig, and the intrathoracic pressure could be measured (with a negative value of a water column of a water manometer and a fluctuation with the breath of the guinea pig as marks). After stabilization, the values of the tidal volume, airway flow rate and transpulmonary pressure of the guinea pig prior to administration of Mch were recorded by a MedLab biological signal collection and processing system as base values. 10 μg/kg body weight of Mch was intravenously injected. The changes of the airway flow rate, tidal volume and transpulmonary pressure of the guinea pig within 5 minutes were observed. Calculation of Raw and Cdyn: the changes of the increased percentage of Raw value and the decreased percentage of Cdyn after […] of Mch were calculated.
Calculation formulas of Raw and Cdyn were respectively: […]
Dose-effect relationship: For each of the example compounds, 27 guinea pigs were randomly divided into […]: a solvent control group with […], a group with 1 μg/kg of the example compounds 4, 10, 14, and 26, a group with 3 μg/kg of the example compounds 4, 10, 14, and 26 and a group with 10 μg/kg of the example compounds 4, 10, 14, and 26; after 30 min from the dropping of the above concentration of drugs in the airway, 10 μg/kg body weight of Mch was intravenously injected for excitation, and airway resistance (Raw) and pulmonary dynamic compliance (Cdyn) within 5 min were determined. […]

[5] = read-out: IC50 (μM), antagonism in vitro against the contraction of the tracheal smooth muscle induced by CCh, 3 × 10^−6 mol/L of CCh
[6] = Cavia porcellus, read-out: IC50 (μM), antagonism in vitro against the contraction of the tracheal smooth muscle induced by CCh, 3 × 10^−6 mol/L of CCh

Compound	IC50 [1, 5] [µM]	Onset time [2] [min]	Time for eliminating inhibition effect (min) [2]	Selectivity m1/m2, Mx/My = Ki(y)/Ki(x) [3]	Selectivity m1/m3, Mx/My = Ki(y)/Ki(x) [3]	Selectivity m2/m3, Mx/My = Ki(y)/Ki(x) [3]	inhibition ratio against the decrease of pulmonary dynamic compliance ([4]; 1 μg/kg dropped in the airway) [%]	inhibition ratio against the increase of airway resistance ([4]; 1 μg/kg dropped in the airway) [%]	Cdyn(ml/cm H2O) ([4]; 1 μg/kg dropped in the airway)	Raw (cm H2O/ml/s) ([4]; 1 μg/kg dropped in the airway)	inhibition ratio against the decrease of pulmonary dynamic compliance ([4]; 3 μg/kg dropped in the airway) [%]	inhibition ratio against the increase of airway resistance ([4]; 3 μg/kg dropped in the airway) [%]	Cdyn(ml/cm H2O) ([4]; 3 μg/kg dropped in the airway)	Raw (cm H2O/ml/s) ([4]; 3 μg/kg dropped in the airway)	inhibition ratio against the decrease of pulmonary dynamic compliance ([4]; 10 μg/kg dropped in the airway) [%]	inhibition ratio against the increase of airway resistance ([4]; 10 μg/kg dropped in the airway) [%]	Cdyn(ml/cm H2O) ([4]; 10 μg/kg dropped in the airway)	Raw (cm H2O/ml/s) ([4]; 10 μg/kg dropped in the airway)	IC50 [1, 6] [µM]	IC50 ([1]; 3 × 10^−6 mol/L of CCh, read-out: IC50 (μM), antagonism in vitro against the contraction of the tracheal smooth muscle induced by CCh) [µM]
OC(CO[C@H]1C[N+]2(CCCOc3ccccc3)CCC1CC2)(c1ccccc1)C1CCCC1.[Br-] (stereo partly drawn) [Example 1, (2R,3S)-3-[(2-cyclopentyl-2-hydroxyl-2-phenyl)ethoxyl]-1-(3-phenoxypropyl)-1-azabicyclo[2,2,2]octane bromide]	0.767	6.89	more than 300 min	34.13	0.358	0.0105														
OC(CO[C@@H]1C[N+]2(CCCOc3ccccc3)CCC1CC2)(c1ccccc1)C1CCC1.[Br-] (stereo partly drawn) [Example 16, (2R,3R)-3-[(2-cyclobutyl-2-hydroxyl-2-phenyl)ethoxyl]-1-(3-phenoxypropyl)-1-azabicyclo[2,2,2]octane bromide]	0.0573	6.38	more than 300 min	13.5	0.67	0.037														
CN1CCN(CC(=O)N2c3ccccc3C(=O)Nc3cccnc32)CC1 [Pirenzepine, reference compound]				169.82	13.49	0.079														
OC(CO[C@H]1C[N+]2(CCCOc3ccccc3)CCC1CC2)(c1ccccc1)C1CCC1.[Br-] (stereo partly drawn) [Example 14, (2S,3S)-3-[(2-cyclobutyl-2-hydroxyl-2-phenyl)ethoxyl]-1-(3-phenoxypropyl)-1-azabicyclo[2,2,2]octane bromide]	4.87	6.34	more than 300 min	25.6	0.205	0.008	11.0	63.5	0.101 ± 0.010	0.719 ± 0.082	46.1	85.4	0.141 ± 0.014	0.560 ± 0.062	49.5	90.5	0.207 ± 0.018	0.504 ± 0.073		
CC[N+](CC)(CC)CCOc1cccc(OCC[N+](CC)(CC)CC)c1OCC[N+](CC)(CC)CC [Gallamine, reference compound]				0.011	0.676	60.26														
O[C@@](CO[C@@H]1C[N+]2(CCOc3ccccc3)CCC1CC2)(c1ccccc1)C1CCCC1.[Br-] [Example 26, (2R,3R)-3-[(2-cyclopentyl-2-hydroxyl-2-phenyl)ethoxyl]-1-(2-phenoxyethyl)-1-azabicyclo[2,2,2]octane bromide]		6.14	more than 300 min				11.0	64.4	0.103 ± 0.014	0.739 ± 0.085	47.1	87.2	0.143 ± 0.016	0.531 ± 0.063	49.9	92.1	0.205 ± 0.018	0.493 ± 0.083	0.0235	
C[N+]1(C)CCC(OC(=O)C(c2ccccc2)c2ccccc2)CC1.[I-] [Example 4-DAMP, 4-DAMP, reference compound]				1.66	0.095	0.058														
O[C@@](COC1C[N+]2(CCCOc3ccccc3)CCC1CC2)(c1ccccc1)C1CCCCC1.[Br-] (stereo partly drawn) [Example 10, (2R,3R)-3-[(2-cyclohexyl-2-hydroxyl-2-phenyl)ethoxyl]-1-(3-phenoxypropyl)-1-azabicyclo[2,2,2]octane bromide]		6.24	more than 300 min				10.9	63.7	0.098 ± 0.009	0.745 ± 0.089	45.9	84.5	0.135 ± 0.007	0.563 ± 0.057	49.8	91.3	0.189 ± 0.015	0.531 ± 0.092	0.0227	
OC(CO[C@@H]1C[N+]2(CCCOc3ccccc3)CCC1CC2)(c1ccccc1)C1CCCC1.[Br-] (stereo partly drawn) [Example 4, (2R,3R)-3-[(2-cyclopentyl-2-hydroxyl-2-phenyl)ethoxyl]-1-(3-phenoxypropyl)-1-azabicyclo[2,2,2]octane bromide]	0.0278	6.37	more than 300 min	30.2	0.332	0.011	11.2	64.2	0.105 ± 0.012	0.733 ± 0.088	46.6	86.1	0.137 ± 0.015	0.552 ± 0.060	50.0	90.8	0.196 ± 0.017	0.513 ± 0.071		
(2R,3S),(2S,3R)-3-[(2-cyclopentyl-2-hydroxyl-2-phenyl)ethoxyl]-1-(3-phenoxypropyl)-1-azabicyclo[2,2,2]octane bromide [Example 5]		7.01	more than 300 min	45.6	0.502	0.011														1.03
